Experimental findings from paper PMC12262620 (bioRxiv, 2025) are described below.

One series deals with LgBiT-eIF4E cells. Kind of series: CellTiter-Glo cell viability assay. The note with it: 6-hour treatment, at the concentrations tested. It counts as cell-based, human.
Series [1] addresses eIF4E binding to m^7GTP RNA substrate (Homo sapiens, UniProt P06730). The series is described as follows: cell-based. The note with it: 6-hour treatment.
A further series has as its target His10-eIF4E (human, UniProt P06730 1-217). The series is described as follows: FP competition.
The mark [2] stands for this setting: IC50 in CRISPR RiPCA, read at 24 hours.
Where [3] appears, read: IC50 values as 95% confidence intervals, CRISPR RiPCA.

What is called IC50 is the midpoint of a concentration-inhibition curve. A higher IC50 goes with lower potency.

Sequence of eIF4E binding to m^7GTP RNA substrate (P06730 whole entry): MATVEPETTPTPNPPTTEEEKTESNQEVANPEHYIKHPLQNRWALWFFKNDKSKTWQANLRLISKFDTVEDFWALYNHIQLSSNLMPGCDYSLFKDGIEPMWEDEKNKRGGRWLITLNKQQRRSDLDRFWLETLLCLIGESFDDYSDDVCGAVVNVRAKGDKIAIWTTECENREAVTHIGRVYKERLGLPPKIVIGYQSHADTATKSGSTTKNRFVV
Sequence of His10-eIF4E (P06730 whole entry): as above

For the molecule `O=C(O)C(Cc1ccccc1[N+](=O)[O-])=NNc1nc(-c2ccc(Cl)c(Cl)c2)cs1` (mixture of isomers) [4EGI-1], the “cell viability / cell death” value with LgBiT-eIF4E cells is given as “Absence of viability defects”.
For the molecule `Cc1cc(-c2cc(Cl)ccc2OCCn2c(C)nc3cc(C(F)(F)F)cc(C#N)c3c2=O)c2scc(C(=O)O)c2n1` [compound 2], the values for the IC50 in series [1] (setting [2]) and in series [1] (setting [3]) were 0.124 µM and 0.091 to 0.171 µM, respectively.
Take `CO[C@H]1C[C@@H]2CC[C@@H](C)[C@@](O)(O2)C(=O)C(=O)N2CCCC[C@H]2C(=O)O[C@H]([C@H](C)C[C@@H]2CC[C@@H](O)[C@H](OC)C2)CC(=O)[C@H](C)/C=C(\C)[C@@H](O)[C@@H](OC)C(=O)[C@H](C)C[C@H](C)/C=C/C=C/C=C/1C` [rapamycin]: the “cell viability / cell death” value with LgBiT-eIF4E cells is on record as “Absence of viability defects”. The IC50 is 4.7 µM in series [1] (setting [2]) and 1.9 to 11 µM in series [1] (setting [3]).

B1: G RNA (uncapped) (ssRNA)
RNA: GCUUCAAGAU
modifications: no cap; 3' C6 amine
B1: the binding result with His10-eIF4E was “no binding”.
